Reference: patent publication US20210255193A1, “LYSINE REACTIVE PROBES AND USES THEREOF” (The Scripps Research Institute, priority 2017, published 2021)

Legend:
Assay in all cases: competitive isoTOP-ABPP
Format in all cases: binding
[1] = biological target: T1, FAH Fumarylacetoacetase (Homo sapiens, UniProt P16930); settings: for R value (DMSO/fragment) for probe 1 labeling: P16930_K241; for R value (DMSO/fragment) for probe 1 labeling / isoTOP-ABPP reactivity ratio at lysine P16930_K241 / isoTOP-ABPP ratio (R) at liganded lysine P16930_K241: 50 uM, in vitro; for R value (DMSO/fragment) for probe 1 labeling / isoTOP-ABPP reactivity ratio at lysine P16930_K241: 231 sol; for isoTOP-ABPP ratio (R) at liganded lysine P16930_K241: sol, 231
T1 construct: isoTOP-ABPP experiments performed in cell lysates (in vitro); endogenous in cells; host or cells: soluble proteome of human cancer cell lines (MDA-MB-231; Ramos and Jurkat also prepared)
T1 sequence (P16930 1-419): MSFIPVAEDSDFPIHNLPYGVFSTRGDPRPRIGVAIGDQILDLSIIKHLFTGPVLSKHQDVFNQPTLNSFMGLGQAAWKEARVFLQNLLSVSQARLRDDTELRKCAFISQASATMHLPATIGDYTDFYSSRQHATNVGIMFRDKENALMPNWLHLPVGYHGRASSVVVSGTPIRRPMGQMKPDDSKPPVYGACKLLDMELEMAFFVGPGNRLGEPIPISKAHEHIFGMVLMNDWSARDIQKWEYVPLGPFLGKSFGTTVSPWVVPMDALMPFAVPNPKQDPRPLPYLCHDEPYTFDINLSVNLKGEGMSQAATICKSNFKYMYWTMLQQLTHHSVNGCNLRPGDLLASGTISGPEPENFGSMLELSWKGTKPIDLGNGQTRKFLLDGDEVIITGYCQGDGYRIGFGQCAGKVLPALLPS
Procedure, shortened: (§1)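 Competition format: fragment (50 μM activated ester, 100 μM guanidinylating agent) versus vehicle in lysate, then lysine probe STP-alkyne at 0.1 mM for 1 h. Quantitation by light/heavy TEV-tag MS1 peak areas, reported as R.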

[2] = biological target: T2, RQCD1 Cell differentiation protein RCD1 homolog (Homo sapiens, UniProt Q92600); settings: 50 uM, in vitro; for R value (DMSO/fragment) for probe 1 labeling: Q92600_K230; for R value (DMSO/fragment) for probe 1 labeling / isoTOP-ABPP reactivity ratio at lysine Q92600_K230: 231 sol; for isoTOP-ABPP ratio (R) at liganded lysine Q92600_K230: sol, 231
T2 construct: isoTOP-ABPP experiments performed in cell lysates (in vitro); endogenous in cells; host or cells: soluble proteome of human cancer cell lines (MDA-MB-231; Ramos and Jurkat also prepared)
T2 sequence (Q92600 whole entry, the tested form may be a part): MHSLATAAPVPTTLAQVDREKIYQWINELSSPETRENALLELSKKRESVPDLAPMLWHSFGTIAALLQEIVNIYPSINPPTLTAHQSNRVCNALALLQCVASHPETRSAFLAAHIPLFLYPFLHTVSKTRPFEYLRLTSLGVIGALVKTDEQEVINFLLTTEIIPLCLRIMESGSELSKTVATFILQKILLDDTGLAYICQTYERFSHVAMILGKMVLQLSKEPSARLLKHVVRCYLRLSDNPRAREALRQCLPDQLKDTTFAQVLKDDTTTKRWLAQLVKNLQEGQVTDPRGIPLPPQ
Procedure, shortened: as §1

[3] = biological target: T3, TRAP1 Heat shock protein 75 kDa, mitochondrial (Homo sapiens, UniProt Q12931); settings: for R value (DMSO/fragment) for probe 1 labeling: Q12931_K699; for R value (DMSO/fragment) for probe 1 labeling / isoTOP-ABPP reactivity ratio at lysine Q12931_K699 / isoTOP-ABPP ratio (R) at liganded lysine Q12931_K699: 50 uM, in vitro; for R value (DMSO/fragment) for probe 1 labeling / isoTOP-ABPP reactivity ratio at lysine Q12931_K699: 231 sol; for isoTOP-ABPP ratio (R) at liganded lysine Q12931_K699: sol, 231
T3 construct: isoTOP-ABPP experiments performed in cell lysates (in vitro); endogenous in cells; host or cells: soluble proteome of human cancer cell lines (MDA-MB-231, Ramos, Jurkat)
T3 sequence (Q12931 60-704): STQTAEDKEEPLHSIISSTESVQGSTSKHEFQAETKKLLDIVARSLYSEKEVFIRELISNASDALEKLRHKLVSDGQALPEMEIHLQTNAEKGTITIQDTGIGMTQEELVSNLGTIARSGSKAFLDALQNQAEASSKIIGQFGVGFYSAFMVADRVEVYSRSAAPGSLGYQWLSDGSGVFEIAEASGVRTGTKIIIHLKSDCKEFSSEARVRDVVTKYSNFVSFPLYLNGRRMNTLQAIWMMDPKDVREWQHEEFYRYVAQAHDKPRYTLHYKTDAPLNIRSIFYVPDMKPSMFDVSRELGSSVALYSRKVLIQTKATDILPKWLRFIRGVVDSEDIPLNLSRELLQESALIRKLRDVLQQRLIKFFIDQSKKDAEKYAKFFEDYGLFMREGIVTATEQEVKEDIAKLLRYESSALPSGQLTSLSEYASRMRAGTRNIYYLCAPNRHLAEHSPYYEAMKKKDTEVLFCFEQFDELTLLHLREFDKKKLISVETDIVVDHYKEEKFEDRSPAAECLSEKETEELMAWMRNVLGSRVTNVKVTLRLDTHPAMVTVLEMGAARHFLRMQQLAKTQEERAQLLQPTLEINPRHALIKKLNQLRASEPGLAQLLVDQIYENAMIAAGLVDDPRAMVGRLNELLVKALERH
Procedure, shortened: as §1

## O=C(CCc1cn(-c2ccccc2)nc1-c1ccccc1)Oc1c(F)c(F)c(F)c(F)c1F [fragment 19, Pentafluorophenyl 3-(1,3-diphenyl-1H-pyrazol-4-yl)propanoate]
[1]
  R value (DMSO/fragment) for probe 1 labeling: 2.5
[2]
  R value (DMSO/fragment) for probe 1 labeling: 1.0
[3]
  R value (DMSO/fragment) for probe 1 labeling: 1.2

## O=C(Oc1c(F)c(F)c(F)c(F)c1F)C(c1ccccc1)c1ccccc1 [fragment 20, Pentafluorophenyl 2,2-diphenylacetate]
[1]
  R value (DMSO/fragment) for probe 1 labeling: 1.0
[2]
  R value (DMSO/fragment) for probe 1 labeling: 0.9
[3]
  R value (DMSO/fragment) for probe 1 labeling: 1.0

## O=C(Oc1c(F)c(F)c(F)c(F)c1F)c1cc(C(F)(F)F)cc(C(F)(F)F)c1 [fragment 21, Pentafluorophenyl 3,5-bis(trifluoromethyl)benzoate]
[1]
  R value (DMSO/fragment) for probe 1 labeling: 2.0
[2]
  R value (DMSO/fragment) for probe 1 labeling: 0.9
[3]
  R value (DMSO/fragment) for probe 1 labeling: 0.9

## Cn1cc(CC(=O)Oc2c(F)c(F)c(F)c(F)c2F)c2ccccc21 [fragment 22, Pentafluorophenyl 2-(1-methyl-1H-indol-3-yl)acetate]
[1]
  R value (DMSO/fragment) for probe 1 labeling: 3.0
[2]
  R value (DMSO/fragment) for probe 1 labeling: 1.0
[3]
  R value (DMSO/fragment) for probe 1 labeling: 1.1

## COc1cc(CCC(=O)Oc2c(F)c(F)c(F)c(F)c2F)cc(OC)c1OC [fragment 23, Pentafluorophenyl 3-(3,4,5-trimethoxyphenyl)propanoate]
[1]
  R value (DMSO/fragment) for probe 1 labeling: 2.8
[2]
  R value (DMSO/fragment) for probe 1 labeling: 1.1
[3]
  R value (DMSO/fragment) for probe 1 labeling: 1.0

## O=C(Oc1c(F)c(F)c(F)c(F)c1F)C1CCN(C(=O)OCc2ccccc2)CC1 [fragment 24, 1-Benzyl 4-(pentafluorophenyl) piperidine-1,4-dicarboxylate]
[1]
  isoTOP-ABPP reactivity ratio at lysine P16930_K241: 1.1
[3]
  isoTOP-ABPP reactivity ratio at lysine Q12931_K699: 0.9

## O=C(Oc1c(F)c(F)c(F)c(F)c1F)c1ccc2ccccc2n1 [fragment 25, Pentafluorophenyl quinoline-2-carboxylate]
[1]
  isoTOP-ABPP reactivity ratio at lysine P16930_K241: 5.2
[3]
  isoTOP-ABPP reactivity ratio at lysine Q12931_K699: 0.9

## O=C(CCc1coc2cc(F)ccc2c1=O)Oc1c(F)c(F)c(F)c(F)c1F [fragment 26, Pentafluorophenyl 3-(7-fluoro-4-oxo-4H-chromen-3-yl)propanoate]
[1]
  isoTOP-ABPP reactivity ratio at lysine P16930_K241: 5.0
[2]
  isoTOP-ABPP reactivity ratio at lysine Q92600_K230: 1.2

## O=C(CN1C(=O)c2ccccc2C1=O)Oc1c(F)c(F)c(F)c(F)c1F [fragment 27, Pentafluorophenyl 2-(1,3-dioxoisoindolin-2-yl)acetate]
[1]
  isoTOP-ABPP reactivity ratio at lysine P16930_K241: 1.8
[3]
  isoTOP-ABPP reactivity ratio at lysine Q12931_K699: 0.7

## CCn1cc(C(=O)Oc2c(F)c(F)c(F)c(F)c2F)c(=O)c2ccc(C)nc21 [fragment 28, Pentafluorophenyl 1-ethyl-7-methyl-4-oxo-1,4-dihydro-1,8-naphthyridine-3-carboxylate]
[1]
  isoTOP-ABPP reactivity ratio at lysine P16930_K241: 2.5
[3]
  isoTOP-ABPP reactivity ratio at lysine Q12931_K699: 0.9

## O=C(CCc1cn(-c2ccccc2)nc1-c1ccccc1)Oc1ccc([N+](=O)[O-])cc1[N+](=O)[O-] [fragment 29, 2,4-Dinitrophenyl 3-(1,3-diphenyl-1H-pyrazol-4-yl)propanoate]
[1]
  isoTOP-ABPP reactivity ratio at lysine P16930_K241: 1.7
[2]
  isoTOP-ABPP reactivity ratio at lysine Q92600_K230: 1.0
[3]
  isoTOP-ABPP reactivity ratio at lysine Q12931_K699: 2.2

## O=C(Oc1ccc([N+](=O)[O-])cc1[N+](=O)[O-])C(c1ccccc1)c1ccccc1 [fragment 30, 2,4-Dinitrophenyl 2,2-diphenylacetate]
[1]
  isoTOP-ABPP reactivity ratio at lysine P16930_K241: 2.7
[2]
  isoTOP-ABPP reactivity ratio at lysine Q92600_K230: 1.6
[3]
  isoTOP-ABPP reactivity ratio at lysine Q12931_K699: 4.1

## O=C(Oc1ccc([N+](=O)[O-])cc1[N+](=O)[O-])c1cc(C(F)(F)F)cc(C(F)(F)F)c1 [fragment 31, 2,4-Dinitrophenyl 3,5-bis(trifluoromethyl)benzoate]
[1]
  isoTOP-ABPP reactivity ratio at lysine P16930_K241: 20.0
[2]
  isoTOP-ABPP reactivity ratio at lysine Q92600_K230: 1.0
[3]
  isoTOP-ABPP reactivity ratio at lysine Q12931_K699: 1.0

## Cn1cc(CC(=O)Oc2ccc([N+](=O)[O-])cc2[N+](=O)[O-])c2ccccc21 [fragment 32, 2,4-Dinitrophenyl 2-(1-methyl-1H-indol-3-yl)acetate]
[1]
  isoTOP-ABPP reactivity ratio at lysine P16930_K241: 2.2
[2]
  isoTOP-ABPP reactivity ratio at lysine Q92600_K230: 10.2
[3]
  isoTOP-ABPP reactivity ratio at lysine Q12931_K699: 2.0

## COc1cc(CCC(=O)Oc2ccc([N+](=O)[O-])cc2[N+](=O)[O-])cc(OC)c1OC [fragment 33, 2,4-Dinitrophenyl 3-(3,4,5-trimethoxyphenyl)propanoate]
[1]
  isoTOP-ABPP reactivity ratio at lysine P16930_K241: 1.7
[2]
  isoTOP-ABPP reactivity ratio at lysine Q92600_K230: 2.5
[3]
  isoTOP-ABPP reactivity ratio at lysine Q12931_K699: 1.5

## O=C(Oc1ccc([N+](=O)[O-])cc1[N+](=O)[O-])C1CCN(C(=O)OCc2ccccc2)CC1 [fragment 34, 1-Benzyl 4-(2,4-dinitrophenyl) piperidine-1,4-dicarboxylate]
[1]
  isoTOP-ABPP ratio (R) at liganded lysine P16930_K241: 1.2
[2]
  isoTOP-ABPP ratio (R) at liganded lysine Q92600_K230: 0.8
[3]
  isoTOP-ABPP ratio (R) at liganded lysine Q12931_K699: 1.8

## O=C(Oc1ccc([N+](=O)[O-])cc1[N+](=O)[O-])c1ccc2ccccc2n1 [fragment 35, 2,4-Dinitrophenyl quinoline-2-carboxylate]
[1]
  isoTOP-ABPP ratio (R) at liganded lysine P16930_K241: 3.4
[2]
  isoTOP-ABPP ratio (R) at liganded lysine Q92600_K230: 0.9
[3]
  isoTOP-ABPP ratio (R) at liganded lysine Q12931_K699: 0.9

## O=C(CCc1coc2cc(F)ccc2c1=O)Oc1ccc([N+](=O)[O-])cc1[N+](=O)[O-] [fragment 36, 2,4-Dinitrophenyl 3-(7-fluoro-4-oxo-4H-chromen-3-yl)propanoate]
[1]
  isoTOP-ABPP ratio (R) at liganded lysine P16930_K241: 3.6
[2]
  isoTOP-ABPP ratio (R) at liganded lysine Q92600_K230: 2.5
[3]
  isoTOP-ABPP ratio (R) at liganded lysine Q12931_K699: 1.7

## O=C(Oc1ccc([N+](=O)[O-])cc1[N+](=O)[O-])c1ccc(-c2ccccc2)cc1 [fragment 37, 2,4-Dinitrophenyl [1,1′-biphenyl]-4-carboxylate]
[1]
  isoTOP-ABPP ratio (R) at liganded lysine P16930_K241: 1.0
[2]
  isoTOP-ABPP ratio (R) at liganded lysine Q92600_K230: 0.8
[3]
  isoTOP-ABPP ratio (R) at liganded lysine Q12931_K699: 0.9

## O=C(CC12CC3CC(CC(C3)C1)C2)Oc1ccc([N+](=O)[O-])cc1[N+](=O)[O-] [fragment 38, 2,4-Dinitrophenyl 2-(adamantan-1-yl)acetate]
[1]
  isoTOP-ABPP ratio (R) at liganded lysine P16930_K241: 1.0
[2]
  isoTOP-ABPP ratio (R) at liganded lysine Q92600_K230: 0.9
[3]
  isoTOP-ABPP ratio (R) at liganded lysine Q12931_K699: 1.4

## O=C(Oc1ccc([N+](=O)[O-])cc1[N+](=O)[O-])c1ccc(Oc2ccccc2)cc1 [fragment 39, 2,4-Dinitrophenyl 4-phenoxybenzoate]
[1]
  isoTOP-ABPP ratio (R) at liganded lysine P16930_K241: 1.2
[2]
  isoTOP-ABPP ratio (R) at liganded lysine Q92600_K230: 0.8
[3]
  isoTOP-ABPP ratio (R) at liganded lysine Q12931_K699: 0.9

## O=C(Oc1c(F)c(F)cc(F)c1F)c1cc(C(F)(F)F)cc(C(F)(F)F)c1 [fragment 48, 2,3,5,6-Tetrafluorophenyl 3,5-bis(trifluoromethyl)benzoate]
[1]; 50 uM_231_sol_in vitro
  isoTOP-ABPP ratio, lysine P16930_K241: 2.3
[3]; 50 uM_231_sol_in vitro
  isoTOP-ABPP ratio, lysine Q12931_K699: 1.0
